Results from the NIST ThermoML archive (doi:10.1021/je034048e).

Settings: for molar entropy: 101.33 kPa, Small (less than 1 g) adiabatic calorimetry

CCCCCCCC/C=C/CCCCCCCC(=O)OCC(COC(=O)CCCCCCC/C=C/CCCCCCCC)OC(=O)CCCCCCC/C=C/CCCCCCCC [trielaidin]
Settings | Triple point temperature [K] | molar entropy [J/K/mol]
20 K, Crystal | – | 26.56
20 K, Metastable crystal | – | 61.98
25 K, Crystal | – | 44.27
25 K, Metastable crystal | – | 88.54
30 K, Crystal | – | 70.83
30 K, Metastable crystal | – | 115.11
35 K, Crystal | – | 97.4
35 K, Metastable crystal | – | 141.67
40 K, Crystal | – | 132.81
40 K, Metastable crystal | – | 177.09
45 K, Crystal | – | 168.23
45 K, Metastable crystal | – | 212.5
50 K, Crystal | – | 194.8
50 K, Metastable crystal | – | 239.07
55 K, Crystal | – | 230.21
55 K, Metastable crystal | – | 274.48
60 K, Crystal | – | 265.63
60 K, Metastable crystal | – | 309.9
65 K, Crystal | – | 301.05
65 K, Metastable crystal | – | 345.32
70 K, Crystal | – | 327.61
70 K, Metastable crystal | – | 380.74
75 K, Crystal | – | 363.03
75 K, Metastable crystal | – | 416.15
80 K, Crystal | – | 398.44
80 K, Metastable crystal | – | 451.57
85 K, Crystal | – | 433.86
85 K, Metastable crystal | – | 486.99
90 K, Crystal | – | 460.42
90 K, Metastable crystal | – | 513.55
95 K, Crystal | – | 495.84
95 K, Metastable crystal | – | 548.97
100 K, Crystal | – | 531.26
100 K, Metastable crystal | – | 584.39
105 K, Crystal | – | 557.82
105 K, Metastable crystal | – | 619.8
110 K, Crystal | – | 593.24
110 K, Metastable crystal | – | 646.37
120 K, Crystal | – | 646.37
120 K, Metastable crystal | – | 708.35
130 K, Crystal | – | 708.35
130 K, Metastable crystal | – | 770.33
140 K, Crystal | – | 770.33
140 K, Metastable crystal | – | 832.31
150 K, Crystal | – | 823.45
150 K, Metastable crystal | – | 894.29
160 K, Crystal | – | 876.58
160 K, Metastable crystal | – | 947.41
170 K, Crystal | – | 929.7
170 K, Metastable crystal | – | 1009.4
180 K, Crystal | – | 982.83
180 K, Metastable crystal | – | 1062.5
190 K, Crystal | – | 1036
190 K, Metastable crystal | – | 1124.5
200 K, Crystal | – | 1089.1
200 K, Metastable crystal | – | 1177.6
210 K, Crystal | – | 1142.2
210 K, Metastable crystal | – | 1239.6
220 K, Crystal | – | 1186.5
220 K, Metastable crystal | – | 1301.6
230 K, Crystal | – | 1239.6
230 K, Metastable crystal | – | 1363.6
240 K, Crystal | – | 1292.7
240 K, Metastable crystal | – | 1425.5
250 K, Crystal | – | 1337
250 K, Metastable crystal | – | 1487.5
260 K, Crystal | – | 1390.1
260 K, Metastable crystal | – | 1549.5
270 K, Crystal | – | 1443.3
270 K, Metastable crystal | – | 1611.5
280 K, Crystal | – | 1496.4
280 K, Metastable crystal | – | 1673.5
288 K, Crystal | – | 1531.8
288 K, Metastable crystal | – | 1726.6
290 K, Crystal | – | 1549.5
298.15 K, Crystal | – | 1593.8
300 K, Crystal | – | 1602.6
310 K, Crystal | – | 1655.8
314.83 K, Crystal | – | 1673.5
314.83 K, Liquid | – | 2204.7
320 K, Liquid | – | 2213.6
330 K, Liquid | – | 2275.6
Crystal, Adiabatic calorimetry | 314.83 | –
